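The compound was tested at five concentrations on cells cultured in 96-well plates, with a 48-hour exposure period. GI50: concentration for 50% inhibition of growth.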 Active and inactive are the calls of the source. Cut-off read from the data, not from the text of the source: active = GI50 up to about 1.1 µM and inactive = higher.
Experiments:
Experiment in all cases: NCI anticancer screen, dose series, 48 h
786-0 = system: 786-0
A498 = system: A498
COLO 205 = system: COLO 205
HL-60 = system: HL-60
IGROV-1 = system: IGROV-1
K562 = system: K562
M19-MEL = system: M19-MEL
MOLT-4 = system: MOLT-4
NCI-H226 = system: NCI-H226
NCI-H23 = system: NCI-H23
OVCAR-3 = system: OVCAR-3
SF-539 = system: SF-539
SK-MEL-2 = system: SK-MEL-2
TK-10 = system: TK-10
ACHN = system: ACHN
OVCAR-4 = system: OVCAR-4
SR = system: SR
BT-549 = system: BT-549
MCF7 = system: MCF7
MDA-N = system: MDA-N

| SMILES | GI50 (786-0) | GI50 (A498) | GI50 (COLO 205) | GI50 (HL-60) | GI50 (IGROV-1) | GI50 (K562) | GI50 (M19-MEL) | GI50 (MOLT-4) | GI50 (NCI-H226) | GI50 (NCI-H23) | GI50 (OVCAR-3) | GI50 (SF-539) | GI50 (SK-MEL-2) | GI50 (TK-10) | GI50 (ACHN) | GI50 (OVCAR-4) | GI50 (SR) | GI50 (BT-549) | GI50 (MCF7) | GI50 (MDA-N) |
| --- | --- | --- | --- | --- | --- | --- | --- | --- | --- | --- | --- | --- | --- | --- | --- | --- | --- | --- | --- | --- |
| NC(=O)c1cccc([N+](=O)[O-])c1 | > 100 µM (inactive) | > 100 µM (inactive) | > 100 µM (inactive) | > 100 µM (inactive) | > 100 µM (inactive) | > 100 µM (inactive) | > 100 µM (inactive) | > 100 µM (inactive) | > 100 µM (inactive) | > 100 µM (inactive) | > 100 µM (inactive) | > 100 µM (inactive) | > 100 µM (inactive) | > 100 µM (inactive) |  |  |  |  |  |  |
| COc1cc2c(cc1OC)C(O)[C@H](Br)C(C)(C)O2 (stereo partly drawn) | > 100 µM (inactive) |  | > 100 µM (inactive) | > 100 µM (inactive) | > 100 µM (inactive) | > 100 µM (inactive) | > 100 µM (inactive) | > 100 µM (inactive) | > 100 µM (inactive) | > 100 µM (inactive) | > 100 µM (inactive) | > 100 µM (inactive) | > 100 µM (inactive) | > 100 µM (inactive) | > 100 µM (inactive) | > 100 µM (inactive) | > 100 µM (inactive) |  |  |  |
| N#CC(C(=O)/C(=N/NC(=O)c1ccccc1O)C(C#N)c1ccc(Cl)cc1)c1ccc(Cl)cc1 (stereo not drawn) | 15.9 µM (inactive) | 11.9 µM (inactive) | 29.9 µM (inactive) | 15.5 µM (inactive) |  | 19.2 µM (inactive) | 14.1 µM (inactive) | > 10 µM (inactive) | 16.9 µM (inactive) | 11.5 µM (inactive) | 20 µM (inactive) | 17.3 µM (inactive) | 16.5 µM (inactive) | 17.5 µM (inactive) | 16 µM (inactive) | 18.1 µM (inactive) |  |  |  |  |
| Oc1ccc(SCc2ccc(NCc3ccccc3)cc2)cc1 | 0.869 µM (active) | 20.1 µM (inactive) | 35.4 µM (inactive) | 14.6 µM (inactive) | 45.5 µM (inactive) | 31.5 µM (inactive) |  | 11.4 µM (inactive) | 98.2 µM (inactive) | 24.7 µM (inactive) | 30 µM (inactive) | 36.6 µM (inactive) | 21.7 µM (inactive) | 50.4 µM (inactive) | 24 µM (inactive) | 18.1 µM (inactive) | 13.1 µM (inactive) | 31.8 µM (inactive) | 29.8 µM (inactive) | 24.5 µM (inactive) |
| CN(C)/C=N/CCN1CCOCC1 | > 100 µM (inactive) | > 100 µM (inactive) | > 100 µM (inactive) | > 100 µM (inactive) | > 100 µM (inactive) | > 100 µM (inactive) |  | > 100 µM (inactive) | > 100 µM (inactive) | > 100 µM (inactive) | > 100 µM (inactive) | > 100 µM (inactive) | > 100 µM (inactive) | > 100 µM (inactive) | > 100 µM (inactive) | > 100 µM (inactive) | > 100 µM (inactive) | > 100 µM (inactive) | > 100 µM (inactive) | > 100 µM (inactive) |
| O=S(=O)(c1ccccc1)C1CN2OC1(S(=O)(=O)c1ccccc1)CC21CCCCC1 (stereo not drawn) | > 100 µM (inactive) |  | > 100 µM (inactive) | 44.9 µM (inactive) | > 100 µM (inactive) | 85.9 µM (inactive) | > 100 µM (inactive) | 40.7 µM (inactive) | > 100 µM (inactive) | > 100 µM (inactive) | > 100 µM (inactive) | > 100 µM (inactive) | > 100 µM (inactive) | > 100 µM (inactive) | > 100 µM (inactive) | 37.1 µM (inactive) | 52.6 µM (inactive) |  |  |  |
| CCC(=O)Oc1c2ccsc2c(OC(=O)CC)c2ccsc12 | 2.13 µM (inactive) | 3.1 µM (inactive) | 5.51 µM (inactive) | 0.201 µM (active) | 1.95 µM (inactive) | 0.461 µM (active) |  | 0.75 µM (active) | 2.06 µM (inactive) | 0.182 µM (active) | 0.351 µM (active) | 0.208 µM (active) | 0.344 µM (active) | 2.25 µM (inactive) | 0.419 µM (active) | 0.948 µM (active) | 0.297 µM (active) | 0.174 µM (active) | 1.45 µM (inactive) | 0.0555 µM (active) |
| CC(C)N(C(C)C)P(OCCC#N)OC1CC(n2cnc3c(=O)[nH]cnc32)OC1COC(=O)NCCCCCCNC(=O)OC(C)(C)c1ccc(-c2ccccc2)cc1 (stereo not drawn) | 23 µM (inactive) | > 100 µM (inactive) | 17.4 µM (inactive) | 14.7 µM (inactive) | 17 µM (inactive) | 13.7 µM (inactive) | 21.5 µM (inactive) | 18.7 µM (inactive) | 23.9 µM (inactive) | 26.1 µM (inactive) |  | 24 µM (inactive) | 30.4 µM (inactive) | 24.2 µM (inactive) | 38.7 µM (inactive) | 19.7 µM (inactive) |  |  |  |  |
| COC(=O)c1c(CC(Cc2ccc3c(c2)CCCC3)C(=O)O)ccc2c1CCCC2 (stereo not drawn) | 36.1 µM (inactive) | 25 µM (inactive) | 18.3 µM (inactive) | 23 µM (inactive) | 36.8 µM (inactive) | 34.7 µM (inactive) |  | 37.1 µM (inactive) | 39.9 µM (inactive) | 60.4 µM (inactive) | 18.8 µM (inactive) | 22.5 µM (inactive) | 20.9 µM (inactive) | 36.1 µM (inactive) | 34 µM (inactive) | 34.5 µM (inactive) | 30.5 µM (inactive) | 40.9 µM (inactive) | 31.6 µM (inactive) | 43.2 µM (inactive) |
| NC1=NCCN1CC(=O)O [CYCLOCREATINE] | > 1000 µM (inactive) | > 1000 µM (inactive) | > 1000 µM (inactive) | > 1000 µM (inactive) | > 1000 µM (inactive) | > 1000 µM (inactive) |  | > 1000 µM (inactive) | > 1000 µM (inactive) | > 1000 µM (inactive) | > 1000 µM (inactive) | > 1000 µM (inactive) | > 1000 µM (inactive) | > 1000 µM (inactive) | > 1000 µM (inactive) | > 1000 µM (inactive) | > 1000 µM (inactive) | > 1000 µM (inactive) | > 1000 µM (inactive) | > 10000 µM (inactive) |
| COC(=O)C1CC/C(=N/C2c3ccccc3-c3ccccc32)N1 (stereo not drawn) | > 100 µM (inactive) | > 100 µM (inactive) | 47.8 µM (inactive) | > 100 µM (inactive) | > 100 µM (inactive) | > 100 µM (inactive) | > 100 µM (inactive) | 24.2 µM (inactive) | > 100 µM (inactive) | > 100 µM (inactive) | 74.8 µM (inactive) |  | > 100 µM (inactive) | > 100 µM (inactive) | > 100 µM (inactive) | > 100 µM (inactive) |  |  |  |  |
| O=C1C(/N=N/c2ccc(-c3nc4ccccc4[nH]3)cc2)NC(=S)N1c1ccccc1 (stereo not drawn) | 18.9 µM (inactive) | > 100 µM (inactive) | 73.6 µM (inactive) | > 100 µM (inactive) | 40.2 µM (inactive) | 17.1 µM (inactive) |  | 18.9 µM (inactive) | > 100 µM (inactive) | 57.4 µM (inactive) | > 100 µM (inactive) | 51.9 µM (inactive) | > 100 µM (inactive) | > 100 µM (inactive) | > 100 µM (inactive) | 61.9 µM (inactive) | 0.671 µM (active) | > 100 µM (inactive) | 10.5 µM (inactive) | 39.5 µM (inactive) |
| CCCCCCCCCC1CC(=O)OC23CCCC(=O)C12O3 (stereo not drawn) | > 100 µM (inactive) | 71.9 µM (inactive) | > 100 µM (inactive) | 26.7 µM (inactive) | > 100 µM (inactive) | 55.1 µM (inactive) | > 100 µM (inactive) | 26.7 µM (inactive) | > 100 µM (inactive) | > 100 µM (inactive) | > 100 µM (inactive) | > 100 µM (inactive) | > 100 µM (inactive) | > 100 µM (inactive) | > 100 µM (inactive) | > 100 µM (inactive) |  |  |  |  |
| NC(CSC1c2ccccc2-c2ccccc21)C(=O)O (stereo not drawn) | > 100 µM (inactive) | > 100 µM (inactive) | > 100 µM (inactive) | > 100 µM (inactive) | > 100 µM (inactive) | > 100 µM (inactive) |  | > 100 µM (inactive) | > 100 µM (inactive) | > 100 µM (inactive) | > 100 µM (inactive) | > 100 µM (inactive) | > 100 µM (inactive) | > 100 µM (inactive) | > 100 µM (inactive) | > 100 µM (inactive) | 69.2 µM (inactive) | > 100 µM (inactive) | > 100 µM (inactive) | > 100 µM (inactive) |
| COc1cc(-c2oc3c(OC)c(O)c(OC)c(O)c3c(=O)c2OC)ccc1O | 38.1 µM (inactive) | 37.3 µM (inactive) | > 100 µM (inactive) | 33.5 µM (inactive) | 25.4 µM (inactive) | 58.6 µM (inactive) |  | 95.5 µM (inactive) | 34.9 µM (inactive) | 52.4 µM (inactive) | 24.3 µM (inactive) | 40.4 µM (inactive) | 24.8 µM (inactive) | 31.3 µM (inactive) | 41.9 µM (inactive) | 74.1 µM (inactive) | 41.5 µM (inactive) | 37.9 µM (inactive) | 28.9 µM (inactive) | 48.1 µM (inactive) |
| Cn1c(=O)c2sc3cc4c(cc3c2c2ccccc21)sc1c(=O)n(C)c2ccccc2c14 | 31.8 µM (inactive) | > 100 µM (inactive) | > 100 µM (inactive) | > 100 µM (inactive) | 65.9 µM (inactive) | > 10 µM (inactive) |  | 78.2 µM (inactive) | > 100 µM (inactive) | 45.7 µM (inactive) | > 100 µM (inactive) | 76 µM (inactive) | > 100 µM (inactive) | > 100 µM (inactive) | 19.2 µM (inactive) | > 100 µM (inactive) | 25.8 µM (inactive) | 19.8 µM (inactive) | > 100 µM (inactive) | > 100 µM (inactive) |

Reference: ChEMBL document CHEMBL1201862, “PubChem BioAssay data set” (2004)
